{"source": "patent US20050096370A1", "about": "“Method for inhibiting tumor angiogenesis and tumor growth” (Bizbiotech Co., Ltd., priority 2003, published 2005)", "key": {"VEGF": {"test_system": "VEGF", "test": "VEGF mRNA RT-PCR in NCI-H87, SiHa, SK-N-MC and Caki-1 cells under hypoxia", "assay_type": "cell-based, human", "conditions": "Caki-1 cells, hypoxic, 16 hours", "procedure": "FIG. 5 is an autoradiograph showing mRNA levels of VEGF and β-actin in cancer cells of different origin.\nLevels of HIF-1α and β-actin proteins were analyzed by immunoblot analysis using a rabbit anti-HIF-1α antibody or a rabbit anti-p-actin antibody. Proteins were visualized by enhanced chemiluminescence."}, "Hep3B hepatoma": {"test_system": "Hep3B hepatoma", "test": "Hep3B hepatoma xenograft tumor growth in nude mice", "assay_type": "in vivo", "conditions": "P<0.001 versus vehicle", "procedure": "(§1) Male nude mice were injected subcutaneously in the flank with 5×10^6 viable Hep3B hepatoma (A), NCI-H87 gastric carcinoma (B), SiHa cervical carcinoma (C), SK-N-MC neuroblastoma (E), or Caki-I renal carcinoma (F) cells. […] Tumor size was measured over time. […] Differences between tumor sizes in the vehicle- and YC-1-treated groups for mice with Hep3B tumors were compared using ANOVA and Duncan's multiple range tests. * denotes P<0.001 relative to the control. Differences between tumor sizes in the vehicle and YC-1-treated groups for mice with other tumors (B-E) were compared using a Mann-Whitney U test. Each number beneath the error bar represents the P value of the difference relative to the control.\n(§2) Male nude (BALB/cAnNC˜-nu/nu) mice were purchased from Charles River Japan Inc. (Shin-Yokohama, JAPAN). The animals were housed in a specific pathogen-free room under controlled temperature and humidity. All animal procedures were performed according to the established procedures of the Seoul National University Laboratory Animal Maintenance Manual. Eighty mice aged 7-8 weeks were injected with tumor cells for the xenograft experiments. […]\n(§3) Tumors were measured every 2 or 3 days with calipers in two dimensions and the tumor volumes were calculated using the formula: Volume=axb2/2, where a is the width at the widest point of the tumor and h is the width perpendicular to a. […]"}, "Caki-1 renal carcinoma": {"test_system": "Caki-1 renal carcinoma", "test": "Caki-1 renal carcinoma xenograft tumor growth in nude mice", "assay_type": "in vivo", "conditions": "YC-1 30 μg/g daily i.p. 2 weeks, P<0.01", "procedure": "as §1, §2, §3"}, "[1]": {"test_system": "human cancer xenografts (Hep3B, NCI-H87, SiHa, SK-N-MC, Caki-1)", "test": "counts of HIF-1α-positive cells and CD31-positive vessels in xenograft tumor sections", "assay_type": "in vivo, nude mice", "conditions": "regardless of cell origin, treated 2 weeks, P<0.01", "procedure": "FIG. 10 is a histogram showing HIF-1α expression detected by immunohistochemistry in human cancer xenografts derived from Hep3B hepatoma, NCI-H87 gastric carcinoma, SiHa cervical carcinoma, SK-N-MC neuroblastoma, or Caki-1 renal carcinoma cells. Male nude mice were injected subcutaneously in the flank with 5×10^6 viable tumor cells. […] After the last treatment, the mice were euthanized, the tumors removed, fixed with formalin, embedded in paraffin and processed for hinmunohistochemistry to detect HIF-1α-positive cells. […] Each bar represents the mean with lower or upper 95% confidence interval. Differences between treatment groups were compared using a Mann-Whitney U test. […]\nFIG. 11 is a histogram showing vascular density detected by immunohistochemistry in human cancer xenografts derived from Hep3B hepatoma, NCI-H87 gastric carcinoma, SiHa cervical carcinoma, SK-N-MC neuroblastoma, or Caki-1 renal carcinoma cells. […]\nWe further quantified the numbers of HIF-1α-positive cells and CD31-positive vessels in tumor sections from vehicle- and YC-1-treated mice. […] The expression of HIF-1α and the vessel density were measured by counting the numbers of immunopositive cells and vessel profiles (identified by CD31 staining) per mm^2 under microscopic images. We analyzed ten or more different lesions per xenograft tumor."}}}
{"smiles": "OCc1ccc(-c2nn(Cc3ccccc3)c3ccccc23)o1", "note": "[YC-1, 3-(5′-hydroxymethyl-2′-furyl)-1-benzylindazole]", "values": [{"measurement": "level of VEGF mRNA", "setting": "VEGF", "value": "dose-dependently inhibited"}, {"measurement": "tumor volume, mean, last day of experiment", "setting": "Hep3B hepatoma; YC-1 30 μg/g daily i.p. for 2 weeks after tumors established (100-150 mm^3)", "value": 126, "unit": "mm^3"}, {"measurement": "tumor volume, mean, last day of experiment", "setting": "Hep3B hepatoma; YC-1 daily i.p. for 2 weeks, started the day after tumor cell injection", "value": 422, "unit": "mm³"}, {"measurement": "tumor size versus vehicle", "setting": "Caki-1 renal carcinoma", "value": "statistically significantly smaller"}, {"measurement": "blood vessel formation (CD31 vessel profiles per mm^2)", "setting": "[1]", "value": "statistically significantly inhibited"}, {"measurement": "expression of HIF-1α protein (immunopositive cells per mm^2)", "setting": "[1]", "value": "statistically significantly inhibited"}]}
